Laboratory results reported in ChEMBL document CHEMBL1201862, “PubChem BioAssay data set” (2004).
pIC50: −log10 of the molar value. Active and inactive are the calls of the source.

Key:
Bcl-2-related protein A1 = target: T1, Bcl-2-related protein A1 (Mus musculus, UniProt Q07440); type: functional;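 further: confirmatory dose–response counterscreen on Bfl-1, used to check hits from a UBC13 polyubiquitin inhibitor campaign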
T1 sequence (Q07440 whole entry): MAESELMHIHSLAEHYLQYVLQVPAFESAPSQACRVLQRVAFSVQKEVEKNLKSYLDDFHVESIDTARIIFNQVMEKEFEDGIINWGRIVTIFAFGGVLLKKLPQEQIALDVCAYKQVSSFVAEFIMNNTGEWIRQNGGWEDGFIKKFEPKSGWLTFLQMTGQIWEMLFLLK

[1] = target: T2, Kappa-type opioid receptor (Homo sapiens, UniProt P41145); type: functional
[2] = target: T3, Serine/threonine-protein phosphatase (Candida dubliniensis (strain CD36 / CBS 7987 / NCPF 3949 / NRRLY-17841) (Yeast), UniProt B9W6M3); experiment: calcineurin pathway inhibitors in yeast reporter, dose response, S. cerevisiae, CDRE-lacZ, luminescence, secondary (AID 2388); type: functional, cell-based;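 further: yeast reporter cells carrying a calcineurin-responsive lacZ construct stimulated with calcium chloride; luminescent beta-galactosidase reporter signal in whole cells rather than isolated phosphatase activity; potency for inhibition where a drop in reporter signal means calcineurin blockade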
T3 sequence (B9W6M3 whole entry): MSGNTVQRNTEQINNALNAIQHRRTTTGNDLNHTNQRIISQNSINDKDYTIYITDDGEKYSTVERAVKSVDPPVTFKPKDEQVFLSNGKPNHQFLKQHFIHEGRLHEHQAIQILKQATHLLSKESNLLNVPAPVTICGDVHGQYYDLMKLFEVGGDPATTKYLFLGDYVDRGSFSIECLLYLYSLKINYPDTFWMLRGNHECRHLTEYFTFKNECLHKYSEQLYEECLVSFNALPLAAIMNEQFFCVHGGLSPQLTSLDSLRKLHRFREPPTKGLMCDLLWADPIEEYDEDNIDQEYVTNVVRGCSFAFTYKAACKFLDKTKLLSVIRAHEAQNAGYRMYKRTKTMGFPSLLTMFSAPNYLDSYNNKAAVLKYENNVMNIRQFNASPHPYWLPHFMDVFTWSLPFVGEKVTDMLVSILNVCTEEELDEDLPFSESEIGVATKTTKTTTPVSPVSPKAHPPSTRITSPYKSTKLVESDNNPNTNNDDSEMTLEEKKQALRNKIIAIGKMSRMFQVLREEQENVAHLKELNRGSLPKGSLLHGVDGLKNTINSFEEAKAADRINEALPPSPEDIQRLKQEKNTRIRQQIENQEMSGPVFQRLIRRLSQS

[3] = target: T4, Delta-type opioid receptor (Homo sapiens, UniProt P41143); experiment: HTS Image-Based Screen for Antagonists of the DOR Receptor. [Related pubchem assays (depositor defined):AID1777, AID1785, AID1786, AID2133]; type: functional
Mu-type opioid receptor = Mu-type opioid receptor (Homo sapiens, UniProt P35372); experiment: HTS Image-Based Screen for Agonists of the MOR Receptor. [Related pubchem assays (depositor defined):AID1777, AID1785, AID1786, AID2133]; type: functional;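 further: imaging of beta-arrestin GFP recruitment into spots after receptor activation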
[4] = target: T2, Kappa-type opioid receptor; type: functional; remark: listed apart in the source
[5] = target: T5, Type-1 angiotensin II receptor (Homo sapiens, UniProt P30556); experiment: AT1 receptor antagonists, dose response, selectivity assay for APJ receptor antagonist project, cell-based, uHTS hits (AID 463214); type: functional;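 further: antagonist potency against angiotensin II stimulated AT1 response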
T5 sequence (P30556 whole entry): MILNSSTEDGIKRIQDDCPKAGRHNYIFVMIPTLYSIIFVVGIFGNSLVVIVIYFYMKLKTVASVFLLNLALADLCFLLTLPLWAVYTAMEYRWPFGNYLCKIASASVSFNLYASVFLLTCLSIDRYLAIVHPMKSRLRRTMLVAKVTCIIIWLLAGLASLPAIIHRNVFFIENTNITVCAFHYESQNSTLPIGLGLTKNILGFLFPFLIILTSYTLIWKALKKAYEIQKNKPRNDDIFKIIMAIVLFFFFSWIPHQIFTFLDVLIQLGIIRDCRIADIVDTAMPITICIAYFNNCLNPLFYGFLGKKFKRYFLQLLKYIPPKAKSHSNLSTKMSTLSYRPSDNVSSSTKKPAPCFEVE

[6] = target: ATP-dependent molecular chaperone HSP82 (Candida albicans (strain WO-1) (Yeast), UniProt C4YTQ8); experiment: loss of DOC-induced GRE-beta-galactosidase reporter signal, dose response, Hsp90 inhibitor project, S. cerevisiae, luminescence (AID 2400); type: functional, cell-based;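 further: beta-galactosidase luminescence from glucocorticoid response element reporter as proxy for Hsp90 function; inhibitor potency where signal loss means Hsp90 inhibition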
Vero [7] = experiment: cells; type: functional, cell-based; settings: Chlorocebus sabaeus
[8] = target: T4, Delta-type opioid receptor; experiment: HTS Image-Based Screen for Agonists of the DOR Receptor. [Related pubchem assays (depositor defined):AID1777, AID1786, AID2133]; type: functional
Beta-galactosidase [9] = target: T6, Beta-galactosidase (Escherichia coli, UniProt Q8VNN2); experiment: PubChem AID 485352; type: functional
[10] = NIH-3T3 fibroblast cytotoxicity, dose response, cytotoxicity control, cell-based, fluorescence, Alamar Blue, secondary assay (AID 2327); type: functional;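 further: NIH-3T3 mouse fibroblasts cultured with fluconazole at 8 µg/mL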
Beta-galactosidase [11] = target: T6, Beta-galactosidase; type: functional
[12] = target: T7, Ubiquitin-conjugating enzyme E2 N (Homo sapiens, UniProt P61088); type: functional
T7 sequence (P61088 whole entry): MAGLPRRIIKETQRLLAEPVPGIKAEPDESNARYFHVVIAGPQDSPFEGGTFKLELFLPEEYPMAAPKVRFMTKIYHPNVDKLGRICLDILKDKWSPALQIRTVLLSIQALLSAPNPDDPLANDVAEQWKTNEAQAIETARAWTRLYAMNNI

[13] = C. albicans growth with fluconazole, confirmation, fluorescence, retest (AID 2467); type: functional, cell-based
Streptococcus = experiment: Group A Streptococcus viability loss, dose response, counter-screen for streptokinase expression inhibitor project, luminescence, BacTiterGlo (AID 1915); type: functional, organism-based;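 further: potency for reduction of bacterial viability or growth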
Cytochrome P450 2C19 = Cytochrome P450 2C19 (Homo sapiens, UniProt P33261); experiment: Cytochrome panel assay with activity outcomes. Panel member name: p450-cyp2c19 Compounds with AC50 equal or less than 10 uM are considered active; type: functional; settings: read-out: AC50
[14] = control 3'UTR Renilla luciferase suppression, dose response, counter-screen for Shn3 inhibitor project, cell-based, Clone20-Shn3RL, cherry-picked (AID 624133); type: functional
[15] = HepG2 cell cytotoxicity, dose response, cytotoxicity control for Shn3 inhibitor project, CellTiter-Glo, cherry-picked (AID 624134); type: functional, cell-based
Vero [16] = experiment: cells; type: functional; settings: Chlorocebus sabaeus
[17] = Shn3 3'UTR reporter inhibitors, dose response, cell-based, Clone20 osteoblasts, firefly luciferase, cherry-picked (AID 624132); type: functional;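 further: firefly luciferase luminescence from reporter carrying the Shn3 3'UTR in osteoblasts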
[18] = test system: Streptococcus sp. 'group A'; experiment: growth inhibition of control SK(-) GAS strain, dose response, counter-screen for streptokinase expression inhibitor project, luminescence, kanamycin, BacTiterGlo, confirmation (AID 1900); type: functional, organism-based
[19] = target: T7, Ubiquitin-conjugating enzyme E2 N; type: functional; remark: listed apart in the source
[20] = target: Lysine-specific demethylase 4C (Homo sapiens, UniProt Q9H3R0); experiment: GASC-1 (JMJD2C) histone demethylase inhibitors, dose response, biochemical, DELFIA europium, cherry-picked samples (AID 488835); type: functional
[21] = inhibitors of intracellular T. cruzi replication, confirmation, NIH3T3 host cells, beta-gal luminescence (AID 2044); type: functional, cell-based;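 further: intracellular parasites grown in NIH/3T3 mouse fibroblasts as host cells; luminescent beta-galactosidase reporter signal from transgenic T. cruzi replicating inside host cells; inhibitors lower the luminescence signal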
[22] = Luminescence Cell-Based/Microorganism Confirmation at Dose of Inhibitors of Trypanosoma cruzi Infection. [Related pubchem assays: 1885, 1968 ]; type: functional
[23] = inhibitors of Trypanosoma cruzi host-cell infection, confirmation, beta-gal luminescence, NIH3T3 host cells (AID 2630); type: functional, cell-based; settings: Mus musculus
[24] = Luminescence Cell-Based Secondary HTS screen to identify cytotoxic compounds of NIH3T3 cells. [Related pubchem assays: 1885, 1968 ]; type: functional
[25] = cytotoxicity toward NIH3T3 fibroblasts, dose response, counter-screen, cell-based, ATP luminescence, mouse fibroblasts (AID 2010); type: functional;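 further: cells exposed to compound for about 90 hours before reading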

T6 sequence (Q8VNN2 whole entry): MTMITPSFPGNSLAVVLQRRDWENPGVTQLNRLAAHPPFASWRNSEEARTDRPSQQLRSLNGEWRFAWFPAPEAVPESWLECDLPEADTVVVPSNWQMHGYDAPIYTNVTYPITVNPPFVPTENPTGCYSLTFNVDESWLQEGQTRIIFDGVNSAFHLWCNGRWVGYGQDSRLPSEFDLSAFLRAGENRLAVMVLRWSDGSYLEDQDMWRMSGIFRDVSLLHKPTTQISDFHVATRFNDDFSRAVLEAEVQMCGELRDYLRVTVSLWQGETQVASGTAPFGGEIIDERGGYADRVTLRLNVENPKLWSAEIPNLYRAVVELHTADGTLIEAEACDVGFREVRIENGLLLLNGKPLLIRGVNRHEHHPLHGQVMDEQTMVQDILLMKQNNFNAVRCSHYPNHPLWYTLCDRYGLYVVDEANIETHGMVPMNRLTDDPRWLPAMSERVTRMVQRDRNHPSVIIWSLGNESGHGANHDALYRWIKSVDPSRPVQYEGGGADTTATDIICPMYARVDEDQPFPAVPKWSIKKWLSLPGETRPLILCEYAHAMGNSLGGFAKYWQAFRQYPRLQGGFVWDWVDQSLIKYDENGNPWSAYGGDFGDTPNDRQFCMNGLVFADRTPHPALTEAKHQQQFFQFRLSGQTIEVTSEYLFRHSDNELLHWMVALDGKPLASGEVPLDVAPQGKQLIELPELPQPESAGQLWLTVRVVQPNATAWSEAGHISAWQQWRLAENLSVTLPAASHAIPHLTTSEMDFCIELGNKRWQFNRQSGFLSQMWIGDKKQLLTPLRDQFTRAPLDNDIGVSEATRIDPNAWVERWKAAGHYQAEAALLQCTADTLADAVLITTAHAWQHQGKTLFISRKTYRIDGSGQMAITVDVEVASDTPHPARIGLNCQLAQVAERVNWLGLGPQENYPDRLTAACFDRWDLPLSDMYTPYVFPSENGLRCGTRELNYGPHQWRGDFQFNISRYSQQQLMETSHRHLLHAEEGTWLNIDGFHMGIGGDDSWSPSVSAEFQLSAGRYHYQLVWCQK
T2 sequence (P41145 whole entry): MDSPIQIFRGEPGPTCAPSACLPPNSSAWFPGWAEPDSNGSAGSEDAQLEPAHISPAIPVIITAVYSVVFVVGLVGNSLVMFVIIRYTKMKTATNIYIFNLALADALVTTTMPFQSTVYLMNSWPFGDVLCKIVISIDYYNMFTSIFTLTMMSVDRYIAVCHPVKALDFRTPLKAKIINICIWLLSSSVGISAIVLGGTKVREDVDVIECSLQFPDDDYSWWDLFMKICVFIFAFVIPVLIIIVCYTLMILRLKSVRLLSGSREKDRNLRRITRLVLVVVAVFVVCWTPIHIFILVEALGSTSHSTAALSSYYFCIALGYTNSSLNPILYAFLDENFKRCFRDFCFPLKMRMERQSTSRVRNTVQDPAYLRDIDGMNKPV
T4 sequence (P41143 whole entry): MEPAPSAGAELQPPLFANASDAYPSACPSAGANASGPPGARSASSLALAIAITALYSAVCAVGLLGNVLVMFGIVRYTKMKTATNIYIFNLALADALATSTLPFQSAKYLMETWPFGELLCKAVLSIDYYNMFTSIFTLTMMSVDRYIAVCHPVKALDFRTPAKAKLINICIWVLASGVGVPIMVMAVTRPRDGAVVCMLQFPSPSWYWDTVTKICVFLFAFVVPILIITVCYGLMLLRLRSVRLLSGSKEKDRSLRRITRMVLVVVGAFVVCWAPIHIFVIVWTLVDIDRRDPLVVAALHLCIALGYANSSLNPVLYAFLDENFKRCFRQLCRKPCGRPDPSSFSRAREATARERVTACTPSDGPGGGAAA
Sequence of ATP-dependent molecular chaperone HSP82 (C4YTQ8 whole entry): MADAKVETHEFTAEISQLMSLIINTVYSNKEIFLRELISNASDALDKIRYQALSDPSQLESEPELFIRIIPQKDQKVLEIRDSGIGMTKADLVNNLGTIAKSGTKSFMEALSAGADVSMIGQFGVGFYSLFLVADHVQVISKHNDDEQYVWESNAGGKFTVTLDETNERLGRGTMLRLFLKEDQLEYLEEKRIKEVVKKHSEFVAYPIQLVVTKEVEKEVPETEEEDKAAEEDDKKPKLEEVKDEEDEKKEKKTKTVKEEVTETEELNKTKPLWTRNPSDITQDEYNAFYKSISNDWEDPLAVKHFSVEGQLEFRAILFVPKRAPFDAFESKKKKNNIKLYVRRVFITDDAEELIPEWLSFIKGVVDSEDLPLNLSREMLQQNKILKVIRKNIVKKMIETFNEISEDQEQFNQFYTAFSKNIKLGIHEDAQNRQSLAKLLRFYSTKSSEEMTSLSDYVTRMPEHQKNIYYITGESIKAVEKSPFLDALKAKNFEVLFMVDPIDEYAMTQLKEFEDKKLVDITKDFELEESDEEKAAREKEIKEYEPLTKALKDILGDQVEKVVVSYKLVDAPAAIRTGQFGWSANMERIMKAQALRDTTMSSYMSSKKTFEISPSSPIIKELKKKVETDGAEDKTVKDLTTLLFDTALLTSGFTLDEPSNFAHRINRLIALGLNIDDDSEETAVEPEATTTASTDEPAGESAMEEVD
Sequence of Cytochrome P450 2C19 (P33261 whole entry): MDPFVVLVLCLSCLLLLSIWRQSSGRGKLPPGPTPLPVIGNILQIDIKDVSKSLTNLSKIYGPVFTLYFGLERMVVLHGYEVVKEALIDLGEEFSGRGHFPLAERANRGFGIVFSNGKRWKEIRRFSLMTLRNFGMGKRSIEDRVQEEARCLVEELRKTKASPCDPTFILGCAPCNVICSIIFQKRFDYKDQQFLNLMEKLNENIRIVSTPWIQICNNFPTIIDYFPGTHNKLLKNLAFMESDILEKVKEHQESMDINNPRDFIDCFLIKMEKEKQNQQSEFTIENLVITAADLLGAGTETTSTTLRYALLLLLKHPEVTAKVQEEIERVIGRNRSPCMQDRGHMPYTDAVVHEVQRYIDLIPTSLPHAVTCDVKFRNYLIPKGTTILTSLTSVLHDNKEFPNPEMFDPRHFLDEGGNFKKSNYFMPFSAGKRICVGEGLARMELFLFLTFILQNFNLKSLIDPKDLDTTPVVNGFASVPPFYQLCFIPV
Sequence of Mu-type opioid receptor (P35372 whole entry): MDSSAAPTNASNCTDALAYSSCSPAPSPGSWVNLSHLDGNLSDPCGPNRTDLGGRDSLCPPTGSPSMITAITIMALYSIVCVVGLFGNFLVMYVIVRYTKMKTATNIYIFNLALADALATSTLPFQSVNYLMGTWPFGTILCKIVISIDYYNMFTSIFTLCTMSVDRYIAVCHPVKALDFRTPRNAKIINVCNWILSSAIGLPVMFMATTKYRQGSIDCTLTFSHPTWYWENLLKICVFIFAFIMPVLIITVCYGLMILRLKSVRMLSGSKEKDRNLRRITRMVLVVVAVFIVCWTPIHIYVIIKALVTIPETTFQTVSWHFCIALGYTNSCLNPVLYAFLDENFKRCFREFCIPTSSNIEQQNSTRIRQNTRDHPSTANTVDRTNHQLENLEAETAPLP
Sequence of Lysine-specific demethylase 4C (Q9H3R0 whole entry): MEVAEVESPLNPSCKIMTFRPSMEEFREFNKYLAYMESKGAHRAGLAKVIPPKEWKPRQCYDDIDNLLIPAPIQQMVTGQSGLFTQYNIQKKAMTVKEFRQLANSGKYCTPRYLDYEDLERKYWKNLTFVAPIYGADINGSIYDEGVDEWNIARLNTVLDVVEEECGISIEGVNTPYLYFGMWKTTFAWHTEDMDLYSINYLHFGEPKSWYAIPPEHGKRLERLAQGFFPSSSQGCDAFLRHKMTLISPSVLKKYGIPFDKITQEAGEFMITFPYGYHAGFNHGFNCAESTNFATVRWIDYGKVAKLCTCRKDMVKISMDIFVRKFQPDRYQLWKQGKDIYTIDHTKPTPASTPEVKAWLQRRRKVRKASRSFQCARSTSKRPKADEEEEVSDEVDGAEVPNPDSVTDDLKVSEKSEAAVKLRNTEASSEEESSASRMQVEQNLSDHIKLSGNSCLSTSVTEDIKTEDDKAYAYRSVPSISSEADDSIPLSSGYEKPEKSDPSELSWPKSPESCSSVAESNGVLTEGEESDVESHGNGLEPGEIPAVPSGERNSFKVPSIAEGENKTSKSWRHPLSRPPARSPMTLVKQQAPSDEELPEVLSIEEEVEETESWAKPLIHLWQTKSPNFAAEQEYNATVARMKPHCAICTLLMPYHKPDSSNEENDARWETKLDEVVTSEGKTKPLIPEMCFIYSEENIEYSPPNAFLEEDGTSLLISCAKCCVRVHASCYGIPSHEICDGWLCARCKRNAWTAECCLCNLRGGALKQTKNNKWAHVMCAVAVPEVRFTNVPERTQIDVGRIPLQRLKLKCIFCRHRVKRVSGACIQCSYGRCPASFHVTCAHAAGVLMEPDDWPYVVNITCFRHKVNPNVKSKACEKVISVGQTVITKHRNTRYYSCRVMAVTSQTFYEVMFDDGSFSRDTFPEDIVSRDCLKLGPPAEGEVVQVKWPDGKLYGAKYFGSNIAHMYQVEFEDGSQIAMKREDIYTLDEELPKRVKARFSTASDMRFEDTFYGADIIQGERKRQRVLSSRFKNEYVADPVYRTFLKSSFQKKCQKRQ

With `CCCOc1ccc(C(=O)NNC(=S)NC(=O)CC)cc1` the IC50 (Bcl-2-related protein A1) was > 20 µM (inactive), the pIC50 [1] was under 4.49 and the EC50 [2] was > 180 µM (inactive). For the same molecule, the IC50 [3] was > 32 µM (inactive), the EC50 (Mu-type opioid receptor) was > 32 µM (inactive) and the IC50 [4] was 7.95 µM (active). The IC50 [5] was 7.14 µM (active), the EC50 [6] was 20.1 µM (active) and the IC50 (Vero [7]) was > 25 µM (active). The EC50 [8] was > 32 µM (inactive), the EC50 (Beta-galactosidase [9]) was > 40 µM (inactive) and the EC50 [10] was 35.1 µM (active). For the same molecule, the EC50 (Beta-galactosidase [11]) was > 31.5 µM (inactive), the IC50 [12] was 7.86 µM (active) and the EC50 [13] was 0.384 µM (active). For the same molecule, the EC50 (Streptococcus) was 2.48 µM (active), the AC50 (Cytochrome P450 2C19) was 20 µM (inconclusive) and the AC50 [14] was 4.18 µM (active). The AC50 [15] was > 70 µM (inactive), the CC50 (Vero [16]) was 21.3 µM (active) and the AC50 [17] was 24.4 µM (active). For the same molecule, the EC50 [18] was 0.612 µM (active) and the IC50 [19] was 9.02 µM (active).

In the case of `COc1ccc(-c2nc(C#N)c(NCc3ccc(F)cc3)o2)cc1OC`, the AC50 [20] was 59.4 µM (active).

In the case of `O=S(=O)(NCC(c1cccnc1)N1CCN(c2ccc(F)cc2)CC1)c1ccccc1` (stereo not given), the EC50 [21] was < 0.1 µM (active), the EC50 [22] was 0.057 µM (active) and the EC50 [23] was 0.057 µM (active). The EC50 [24] was > 195 µM (not active), the EC50 (cells) was 0.066 µM (active) and the EC50 [25] was > 60 µM (not active).
